Source: patent US12030906B2, “Crystalline forms of (s)-2-ethylbutyl 2-(((s)-(((2r,3s,4r,5r)-5-(4-aminopyrrolo[2,1-f] [1,2,4]triazin-7-yl)-5-cyano-3,4-dihydroxytetrahydrofuran-2-yl)methoxy) (phenoxy) phosphoryl)amino)propanoate” (priority 2017, dated 2024)
Read-outs that look alike come from different tables or passages of the source.

How the values were obtained:
[1] = Competition experiment between Formula I Form I and Formula I Form II in isopropyl acetate; format: physicochemical; conditions: Experiment 26; Form I 11 mg + Mixture II 55.4 mg in IPAc 889 mg; 75 mg/g; suspension
Protocol: A competition experiment between Formula I Form I and Formula I Form II was conducted by mixing Formula I Form I with isopropyl acetate, followed by adding Mixture II, a mixture of Formula I Form II and Formula I Form IV.

[2] = format: physicochemical; conditions: for XRPD: room temperature, two weeks
[3] = Competition experiment between Formula I Form II and Formula I Form IV in IPA/Water at 50° C.; format: physicochemical
[4] = Experiment 023, wt % water 9.3, 1 day in suspension, Temp. 50
[5] = Experiment 030, wt % water 4.9, 1, 3 days in suspension, Temp. 50
[6] = Experiment 033, wt % water 39.5, 3 days in suspension, Temp. 50
[7] = Experiment 034, wt % water 49.9, 1, 3 days in suspension, Temp. 50

## CCC(CC)COC(=O)[C@H](C)N[P@](=O)(OC[C@H]1O[C@@](C#N)(c2ccc3c(N)ncnn23)[C@H](O)[C@@H]1O)Oc1ccccc1 [Formula I Form I, (S)-2-ethylbutyl 2-(((S)-(((2R,3S,4R,5R)-5-(4-aminopyrrolo[2,1-f][1,2,4]triazin-7-yl)-5-cyano-3,4-dihydroxytetrahydrofuran-2-yl)methoxy)(phenoxy)phosphoryl)amino)propanoate]
[1]
  Comment (form conversion): Form II in 1 day

## CCC(CC)COC(=O)[C@H](C)N[P@](=O)(OC[C@H]1O[C@@](C#N)(c2ccc3c(N)ncnn23)[C@H](O)[C@@H]1O)Oc1ccccc1 [Formula I Form II, (S)-2-ethylbutyl 2-(((S)-(((2R,3S,4R,5R)-5-(4-aminopyrrolo[2,1-f][1,2,4]triazin-7-yl)-5-cyano-3,4-dihydroxytetrahydrofuran-2-yl)methoxy)(phenoxy)phosphoryl)amino)propanoate]
[2]; several competition experiments
  more stable form: more stable form

## CCC(CC)COC(=O)[C@H](C)N[P@](=O)(OC[C@H]1O[C@@](C#N)(c2ccc3c(N)ncnn23)[C@H](O)[C@@H]1O)Oc1ccccc1 [Formula I Mixture II, (S)-2-ethylbutyl 2-(((S)-(((2R,3S,4R,5R)-5-(4-aminopyrrolo[2,1-f][1,2,4]triazin-7-yl)-5-cyano-3,4-dihydroxytetrahydrofuran-2-yl)methoxy)(phenoxy)phosphoryl)amino)propanoate]
[1]
  Comment (form conversion): Form II in 1 day
[3]; [4]
  DSC: Form II
  XRPD: Form II
[3]; [5]
  DSC: Form II
  XRPD: Form II
[3]; [6]
  DSC: Form II
  XRPD: Form II
[3]; [7]
  DSC: Form II
  XRPD: Form II
[3]; Experiment 037, wt % water 0.93, 2 days in suspension, Temp. 50, 22
  DSC: Form II
[3]; IPA/Water (3/6 V/V) at 50° C. for several days, all experiments
  conversion of form: conversion to Formula I Form II

## CCC(CC)COC(=O)[C@H](C)N[P@](=O)(OC[C@H]1O[C@@](C#N)(c2ccc3c(N)ncnn23)[C@H](O)[C@@H]1O)Oc1ccccc1 [Formula I, (S)-2-ethylbutyl 2-(((S)-(((2R,3S,4R,5R)-5-(4-aminopyrrolo[2,1-f][1,2,4]triazin-7-yl)-5-cyano-3,4-dihydroxytetrahydrofuran-2-yl)methoxy)(phenoxy)phosphoryl)amino)propanoate]
[2]; Experiment 12, 1-propanol
  XRPD: Partially converted to Form II
[2]; Experiment 14, THF
  XRPD: Partially converted to Form II
[2]; Experiment 16, 2-propanol
  XRPD: Partially converted to Form II
[2]; Experiment 18, ACN
  XRPD: Form II
[2]; Experiment 20, DCM
  XRPD: Partially converted to Form II
[2]; Experiment 22, Ethanol
  XRPD: Form II
[2]; Experiment 24, MTBE
  XRPD: Partially converted to Form II
[2]; Experiment 26, 2MeTHF
  XRPD: Partially converted to Form II
[2]; Experiment 28, EtOAc/water
  XRPD: Form II
[2]; Experiment 30, MEK
  XRPD: Form II
[2]; Experiment 32, Ethanol/water aw 0.4
  XRPD: Form II
